# Source: patent publication US20260138990A1, “TRICYCLIC FUSED IMIDAZOLE COMPOUNDS AS CD38 MODULATORS AND USES THEREOF” (AEOVIAN PHARMACEUTICALS, INC., priority 2023, published 2026)
# Legend:
# human CD38 = molecular target: T1, human CD38 (Homo sapiens, UniProt P28907); assay: NAD+ cyclase activity assay with human recombinant CD38 protein (ε-NAD fluorescence); assay type: biochemical; details: 1.9 nM human CD38, substrate ε-NAD, 30 min preincubation, fluorescence 300/410 nm
# T1 construct: purchased Bio-Techne GmbH AVI2404
# T1 sequence (P28907 1-300): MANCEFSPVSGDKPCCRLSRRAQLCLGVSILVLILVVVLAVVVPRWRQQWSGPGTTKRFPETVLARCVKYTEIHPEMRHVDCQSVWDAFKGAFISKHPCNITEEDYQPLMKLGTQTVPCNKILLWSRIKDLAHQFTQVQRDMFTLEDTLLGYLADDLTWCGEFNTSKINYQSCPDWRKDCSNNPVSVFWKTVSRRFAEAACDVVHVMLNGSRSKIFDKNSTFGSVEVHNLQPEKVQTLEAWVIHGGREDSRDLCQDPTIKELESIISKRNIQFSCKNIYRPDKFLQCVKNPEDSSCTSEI
# In short: (§1)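 Recombinant CD38 (0.6 nM mouse or 1.9 nM human) in 40 mM HEPES/NaOH pH 7.5, 250 mM sucrose, 0.01% Tween was preincubated with compound for 30 min at room temperature, then […] ε-NAD was added. Fluorescence (ex 300/em 410 nm) was read continuously. Slopes over the linear phase were normalised to enzyme and no-enzyme controls and fitted from 12-point, threefold dose-response curves.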
# mouse CD38 = molecular target: T2, mouse CD38 (Mus musculus, UniProt P56528); assay: NAD+ cyclase activity assay with mouse recombinant CD38 protein (ε-NAD fluorescence); assay type: biochemical; details: 0.6 nM mouse CD38, substrate ε-NAD, 30 min preincubation, fluorescence 300/410 nm
# T2 construct: purchased Bio-Techne GmbH 4947-AC
# T2 sequence (P56528 1-304): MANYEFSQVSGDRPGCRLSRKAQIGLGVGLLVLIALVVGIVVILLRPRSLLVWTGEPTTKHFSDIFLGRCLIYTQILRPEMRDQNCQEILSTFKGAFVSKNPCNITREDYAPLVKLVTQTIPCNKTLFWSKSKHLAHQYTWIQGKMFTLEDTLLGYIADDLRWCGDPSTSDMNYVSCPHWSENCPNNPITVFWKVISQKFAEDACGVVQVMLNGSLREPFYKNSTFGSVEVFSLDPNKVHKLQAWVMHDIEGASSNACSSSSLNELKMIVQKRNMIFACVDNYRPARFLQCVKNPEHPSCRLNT
# In short: as §1
SMILES,IC50 (human CD38),IC50 (mouse CD38)
"O=C(NC1CCC1(F)F)c1ccc2c(c1)-c1cncn1CCO2 (stereo not drawn) [Compound 139A, N-(2,2-Difluorocyclobutyl)-5,6-dihydrobenzo[f]imidazo[1,5-d][1,4]oxazepine-10-carboxamide]",< 30 nM,< 1 nM
"O=C(NC1CCC1(F)F)c1cc(F)c2c(c1)-c1cncn1CCO2 (stereo not drawn) [Compound 140A, N-(2,2-Difluorocyclobutyl)-8-fluoro-5,6-dihydrobenzo[f]imidazo[1,5-d][1,4]oxazepine-10-carboxamide]",< 30 nM,< 1 nM
"CC1(C)CC(NC(=O)c2ccc3c(c2)-c2cncn2CCO3)C1 [Compound 141A, N-(3,3-Dimethylcyclobutyl)-5,6-dihydrobenzo[f]imidazo[1,5-d][1,4]oxazepine-10-carboxamide]",< 30 nM,1 to 10 nM
"CC1(C)CC(NC(=O)c2cc(F)c3c(c2)-c2cncn2CCO3)C1 [Compound 143A, N-(3,3-Dimethylcyclobutyl)-8-fluoro-5,6-dihydrobenzo[f]imidazo[1,5-d][1,4]oxazepine-10-carboxamide]",< 30 nM,< 1 nM
"COCC1COc2cc(NC(=O)c3ccc4c(c3)-c3cncn3CCO4)cnc2O1 (stereo not drawn) [Compound 144A, N-(3-(Methoxymethyl)-2,3-dihydro-[1,4]dioxino[2,3-b]pyridin-7-yl)-5,6-dihydrobenzo[f]imidazo[1,5-d][1,4]oxazepine-10-carboxamide]",< 30 nM,1 to 10 nM
"COCC1COc2ncc(NC(=O)c3ccc4c(c3)-c3cncn3CCO4)cc2O1 (stereo not drawn) [Compound 145A, N-(2-(Methoxymethyl)-2,3-dihydro-[1,4]dioxino[2,3-b]pyridin-7-yl)-5,6-dihydrobenzo[f]imidazo[1,5-d][1,4]oxazepine-10-carboxamide]",< 30 nM,1 to 10 nM
"CS(=O)(=O)C1CCC(NC(=O)c2ccc3c(c2)-c2cncn2CCO3)CC1 (stereo not drawn) [Compound 146A, N-(4-(Methylsulfonyl)cyclohexyl)-5,6-dihydrobenzo[f]imidazo[1,5-d][1,4]oxazepine-10-carboxamide]",30 to 100 nM,10 to 100 nM
"O=C(N[C@H]1CC[C@H](O[C@H]2C[C@@H](F)C2)CC1)c1ccc2c(c1)-c1cncn1CCO2 [Compound 147A, N-((1r,4r)-4-((1s,3s)-3-Fluorocyclobutoxy)cyclohexyl)-5,6-dihydrobenzo[f]imidazo[1,5-d][1,4]oxazepine-10-carboxamide]",< 30 nM,1 to 10 nM
"O=C(N[C@H]1CC[C@H](O[C@H]2C[C@H](F)C2)CC1)c1ccc2c(c1)-c1cncn1CCO2 [Compound 148A, N-((1r,4r)-4-((1r,3r)-3-Fluorocyclobutoxy)cyclohexyl)-5,6-dihydrobenzo[f]imidazo[1,5-d][1,4]oxazepine-10-carboxamide]",< 30 nM,1 to 10 nM
"O=C(N[C@H]1CC[C@@H](O[C@H]2C[C@@H](F)C2)CC1)c1ccc2c(c1)-c1cncn1CCO2 [Compound 149A, N-((1s,4s)-4-((1s,3s)-3-Fluorocyclobutoxy)cyclohexyl)-5,6-dihydrobenzo[f]imidazo[1,5-d][1,4]oxazepine-10-carboxamide]",100 to 1000 nM,10 to 100 nM
"O=C(N[C@H]1CC[C@@H](O[C@H]2C[C@H](F)C2)CC1)c1ccc2c(c1)-c1cncn1CCO2 [Compound 150A, N-((1s,4s)-4-((1r,3r)-3-Fluorocyclobutoxy)cyclohexyl)-5,6-dihydrobenzo[f]imidazo[1,5-d][1,4]oxazepine-10-carboxamide]",100 to 1000 nM,> 100 nM
"O=C(NC1CCCC(C(F)(F)F)C1)c1ccc2c(c1)-c1cncn1CCO2 (stereo not drawn) [Compound 151A, N-(3-(Trifluoromethyl)cyclohexyl)-5,6-dihydrobenzo[f]imidazo[1,5-d][1,4]oxazepine-10-carboxamide]",< 30 nM,1 to 10 nM
"O=C(N[C@H]1CC[C@H](OC2CC(F)(F)C2)CC1)c1ccc2c(c1)-c1cncn1CCO2 [Compound 152A, N-((1r,4r)-4-(3,3-Difluorocyclobutoxy)cyclohexyl)-5,6-dihydrobenzo[f]imidazo[1,5-d][1,4]oxazepine-10-carboxamide]",< 30 nM,1 to 10 nM
"O=C(N[C@H]1CC[C@@H](OC2CC(F)(F)C2)CC1)c1ccc2c(c1)-c1cncn1CCO2 [Compound 153A, N-((1s,4s)-4-(3,3-Difluorocyclobutoxy)cyclohexyl)-5,6-dihydrobenzo[f]imidazo[1,5-d][1,4]oxazepine-10-carboxamide]",100 to 1000 nM,10 to 100 nM
"O=C(NC1CCC(F)(F)CC1)c1cc2c(c(F)c1F)OCCn1cncc1-2 [Compound 154A, N-(4,4-Difluorocyclohexyl)-8,9-difluoro-5,6-dihydrobenzo[f]imidazo[1,5-d][1,4]oxazepine-10-carboxamide]",< 30 nM,< 1 nM
"O=C(N[C@H]1CC[C@H](OCC(F)(F)F)CC1)c1cc(F)c2c(c1)-c1cncn1CCO2 [Compound 155A, 8-Fluoro-N-((1r,4r)-4-(2,2,2-trifluoroethoxy)cyclohexyl)-5,6-dihydrobenzo[f]imidazo[1,5-d][1,4]oxazepine-10-carboxamide]",< 30 nM,< 1 nM
"O=C(N[C@H]1CC[C@@H](OCC(F)(F)F)CC1)c1cc(F)c2c(c1)-c1cncn1CCO2 [Compound 156A, 8-Fluoro-N-((1s,4s)-4-(2,2,2-trifluoroethoxy)cyclohexyl)-5,6-dihydrobenzo[f]imidazo[1,5-d][1,4]oxazepine-10-carboxamide]",30 to 100 nM,10 to 100 nM
"O=C(N[C@H]1CC[C@H](OCC(F)(F)F)CC1)c1cc(Cl)c2c(c1)-c1cncn1CCO2 [Compound 157A, 8-Chloro-N-((1r,4r)-4-(2,2,2-trifluoroethoxy)cyclohexyl)-5,6-dihydrobenzo[f]imidazo[1,5-d][1,4]oxazepine-10-carboxamide]",< 30 nM,< 1 nM
"O=C(N[C@H]1CC[C@@H](OCC(F)(F)F)CC1)c1cc(Cl)c2c(c1)-c1cncn1CCO2 [Compound 158A, 8-Chloro-N-((1s,4s)-4-(2,2,2-trifluoroethoxy)cyclohexyl)-5,6-dihydrobenzo[f]imidazo[1,5-d][1,4]oxazepine-10-carboxamide]",30 to 100 nM,1 to 10 nM
"O=C(NC1CC2(CCC2)C1)c1cc(F)c2c(c1)-c1cncn1CCO2 [Compound 159A, 8-Fluoro-N-(spiro[3.3]heptan-2-yl)-5,6-dihydrobenzo[f]imidazo[1,5-d][1,4]oxazepine-10-carboxamide]",< 30 nM,< 1 nM
"O=C(NC1CC2(COC2)C1)c1cc(F)c2c(c1)-c1cncn1CCO2 [Compound 160A, 8-Fluoro-N-(2-oxaspiro[3.3]heptan-6-yl)-5,6-dihydrobenzo[f]imidazo[1,5-d][1,4]oxazepine-10-carboxamide]",30 to 100 nM,1 to 10 nM
"O=C(NC1CCCC(C(F)(F)F)C1)c1cc(F)c2c(c1)-c1cncn1CCO2 (stereo not drawn) [Compound 161A, 8-Fluoro-N-(3-(trifluoromethyl)cyclohexyl)-5,6-dihydrobenzo[f]imidazo[1,5-d][1,4]oxazepine-10-carboxamide]",< 30 nM,1 to 10 nM
"CC1(NC(=O)c2cc(F)c3c(c2)-c2cncn2CCO3)CCCCC1 [Compound 162A, 8-Fluoro-N-(1-methylcyclohexyl)-5,6-dihydrobenzo[f]imidazo[1,5-d][1,4]oxazepine-10-carboxamide]",30 to 100 nM,10 to 100 nM
"CC1(NC(=O)c2cc(Cl)c3c(c2)-c2cncn2CCO3)CCCCC1 [Compound 163A, 8-Chloro-N-(1-methylcyclohexyl)-5,6-dihydrobenzo[f]imidazo[1,5-d][1,4]oxazepine-10-carboxamide]",< 30 nM,1 to 10 nM
"O=C(NC1CCC(CC(F)(F)F)CC1)c1cc(F)c2c(c1)-c1cncn1CCO2 (stereo not drawn) [Compound 164A, 8-Fluoro-N-(4-(2,2,2-trifluoroethyl)cyclohexyl)-5,6-dihydrobenzo[f]imidazo[1,5-d][1,4]oxazepine-10-carboxamide]",< 30 nM,1 to 10 nM
"O=C(NC1CCC(CC(F)(F)F)CC1)c1cc(Cl)c2c(c1)-c1cncn1CCO2 (stereo not drawn) [Compound 165A, 8-Chloro-N-(4-(2,2,2-trifluoroethyl)cyclohexyl)-5,6-dihydrobenzo[f]imidazo[1,5-d][1,4]oxazepine-10-carboxamide]",< 30 nM,1 to 10 nM
"O=C(N[C@H]1CC[C@H](OC2CC(F)(F)C2)CC1)c1cc(F)c2c(c1)-c1cncn1CCO2 [Compound 166A, N-((1r,4r)-4-(3,3-Difluorocyclobutoxy)cyclohexyl)-8-fluoro-5,6-dihydrobenzo[f]imidazo[1,5-d][1,4]oxazepine-10-carboxamide]",< 30 nM,1 to 10 nM
